Data taken from PubChem BioAssay AID1845210 (Molecular Pharmacology Branch, DTP, NCI, 2023).

Test system: NCI-H226 complex tumor spheroids, viability
Assay: Anticancer human tumor NCI-H226 cell line growth inhibition;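 note: spheroids exposed to compound for 7 days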;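 for viability, T/C: 100% = DMSO vehicle control viability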
Conditions: for IC50: curve of first compound; for viability, T/C: stronger effect = lower value
Description: Multicellular complex tumor spheroid response to DNA repair inhibitors in combination with DNA-damaging drugs
This study explores the anticancer activities of DNA-damaging drugs and inhibitors of DNA damage repair, both as single agents and in combinations. Complex tumor spheroids comprised of malignant cells, endothelial cells and mesenchymal stem cells served as an in vitro model for human solid tumors. This model system incorporates physiologically relevant features and patient-derived or established malignant cell lines with clinically relevant genetic alterations from many tumor types. Twenty-six patient-derived or established malignant cell lines were evaluated representing sarcoma, melanoma, small cell lung cancer (SCLC), non-small cell lung cancer (NSCLC), as well as bladder, ovarian and pancreatic cancers. The concentration ranges selected for each drug and investigational agent were based upon clinically achievable concentrations if the clinical Cmax of the agent was known.
Compounds. The drugs and compounds olaparib (NSC753686), talazoparib (NSC767125), berzosertib (NSC777718), elimusertib (NSC800525), nedisertib (NSC802822), VX-984 (NSC792969), AZD-1390 (NSC803789), temozolomide (NSC362856), topotecan (NSC609699), trabectedin (NSC813783), staurosporine (NSC755774), and gemcitabine (NSC613327) were obtained from the National Cancer Institute (NCI) Developmental Therapeutics Program Chemical Repository. The FDA-approved anticancer drug set is available from the Developmental Therapeutics Program at https://dtp.cancer.gov/organization/dscb/obtaining/available_plates.htm. […] The stock solutions were prepared in dimethyl sulfoxide (DMSO, Sigma-Aldrich, St. Louis, MO, cat. D2650) at 400-fold the tested concentration and stored at -70 degrees C. Prior to their use, the stock solutions were diluted in fresh medium and the final DMSO concentration in the assay was 0.25% (v/v). All drugs and investigational agents were tested over a range starting from a high concentration at or near the clinical Cmax and decreasing in half-log increments. If the clinical Cmax for an agent had not been determined, the highest concentration tested was 10 microM.
Cell Lines. The patient-derived cancer cell (PDC) lines: 156681-154-R-J1-PDC, 283228-195-R-J1-PDC, 287954-098-R-J1-PDC, 292921-168-R-J2-PDC, 349418-098-R-PDC, 425362-245-T-J1-PDC, 556581-035-R-J1-PDC, and BL0293-F563-PDC were received from the NCI Patient-Derived Models Repository (PDMR, https://pdmr.cancer.gov). The established cell lines HS-SY-2 (RRID:CVCL_8719), MPNST, and SYO-1 (RRID:CVCL_7146) were obtained from the Sloan Kettering Institute. The alveolar soft parts sarcoma cell line ASPS-1 (RRID:CVCL_S738) was established at the NCI and grown from internal seed stocks. The following established cell lines were purchased from the American Type Culture Collection (ATCC, Manassas, VA): G-401 (ATCC, cat. CRL-1441, RRID:CVCL_0270), SW982 (ATCC, cat. HTB-93, RRID:CVCL_1734), VA-ES-BJ (ATCC, cat. CRL-2138, RRID:CVCL_1785), NCI-H719 (ATCC, cat. CRL-5837, RRID:CVCL_1582), NCI-H196 (ATCC, cat. CRL-5823, RRID:CVCL_1509), NCI-H841 (ATCC, cat. CRL-5845, RRID:CVCL_1595), NCI-H1618 (ATCC, cat. CRL-5879, RRID:CVCL_1480), NCI-H1876 (ATCC, cat. CRL-5902, RRID:CVCL_1503), DMS 114 (ATCC, cat. CRL-2066; RRID:CVCL_1174), NCI-H211 (ATCC, cat. CRL-5824; RRID:CVCL_1529), and SW 1271 (ATCC, cat. CRL-2177, RRID:CVCL_1716). The small cell lung cancer cell line COR-L88 was purchased from Sigma-Aldrich (cat. 92031917-1VL, RRID:CVCL_1141). The non-small cell lung cancer cell lines NCI-H226 (RRID:CVCL_1544) and NCI-H322M (RRID:CVCL_1557) were established at the NCI and grown from internal seed stocks. Pooled donor human umbilical vein endothelial cells (HUVEC, Lonza, cat. CC-2519) and human mesenchymal stem cells (hMSC, Lonza, cat. PT-2501) were purchased from Lonza (Walkersville, MD).
Cell Culture. All cells were maintained in an incubator at 37 degrees C and 5% CO2 with 95% humidity. […]

[1] = second compound 0.003 µM, first compound 0.00949 µM
[2] = second compound 0.003 µM, first compound 0.03 µM
[3] = second compound 0.003 µM, first compound 0.0949 µM
[4] = second compound 0.003 µM, first compound 0.3 µM
[5] = second compound 0.003 µM, first compound 0.949 µM
[6] = second compound 0.003 µM, first compound 3 µM
[7] = second compound 0.00949 µM, first compound 0.00949 µM
[8] = second compound 0.00949 µM, first compound 0.03 µM
[9] = second compound 0.00949 µM, first compound 0.0949 µM
[10] = second compound 0.00949 µM, first compound 0.3 µM
[11] = second compound 0.00949 µM, first compound 0.949 µM
[12] = second compound 0.00949 µM, first compound 3 µM
[13] = second compound 0.03 µM, first compound 0.00949 µM
[14] = second compound 0.03 µM, first compound 0.03 µM
[15] = second compound 0.03 µM, first compound 0.0949 µM
[16] = second compound 0.03 µM, first compound 0.3 µM
[17] = second compound 0.03 µM, first compound 0.949 µM
[18] = second compound 0.03 µM, first compound 3 µM
[19] = second compound 0.0949 µM, first compound 0.00949 µM
[20] = second compound 0.0949 µM, first compound 0.03 µM
[21] = second compound 0.0949 µM, first compound 0.0949 µM
[22] = second compound 0.0949 µM, first compound 0.3 µM
[23] = second compound 0.0949 µM, first compound 0.949 µM
[24] = second compound 0.0949 µM, first compound 3 µM
[25] = second compound 0.3 µM, first compound 0.00949 µM
[26] = second compound 0.3 µM, first compound 0.03 µM
[27] = second compound 0.3 µM, first compound 0.0949 µM
[28] = second compound 0.3 µM, first compound 0.3 µM
[29] = second compound 0.3 µM, first compound 0.949 µM
[30] = second compound 0.3 µM, first compound 3 µM

| SMILES | IC50 (second compound 0.003 µM) | IC50 (second compound 0.00949 µM) | IC50 (second compound 0.03 µM) | IC50 (second compound 0.0949 µM) | IC50 (second compound 0.3 µM) | viability, T/C [1] | viability, T/C [2] | viability, T/C [3] | viability, T/C [4] | viability, T/C [5] | viability, T/C [6] | viability, T/C [7] | viability, T/C [8] | viability, T/C [9] | viability, T/C [10] | viability, T/C [11] | viability, T/C [12] | viability, T/C [13] | viability, T/C [14] | viability, T/C [15] | also measured |
| --- | --- | --- | --- | --- | --- | --- | --- | --- | --- | --- | --- | --- | --- | --- | --- | --- | --- | --- | --- | --- | --- |
| CNCc1ccc(-c2cc(-c3nc(-c4ccc(S(=O)(=O)C(C)C)cc4)cnc3N)on2)cc1 + CC[C@@]1(O)C(=O)OCc2c1cc1n(c2=O)Cc2cc3c(CN(C)C)c(O)ccc3nc2-1 | 1.71 µM | 1.56 µM | 1.7 µM | 1.67 µM | 1.31 µM | 111% | 116% | 125% | 130% | 89.8% | 12.1% | 99.1% | 112% | 108% | 107% | 87% | 1.35% | 90.5% | 109% | 115% | viability, T/C [16]: 123%; viability, T/C [17]: 97.4%; viability, T/C [18]: 3.86%; viability, T/C [19]: 90.7%; viability, T/C [20]: 105%; viability, T/C [21]: 104%; viability, T/C [22]: 110%; viability, T/C [23]: 96.7%; viability, T/C [24]: 1.91%; viability, T/C [25]: 70.1%; viability, T/C [26]: 76.7%; viability, T/C [27]: 92.8%; viability, T/C [28]: 101%; viability, T/C [29]: 69.5%; viability, T/C [30]: 0.93% |
| Cc1sc2c(c1C)C(c1ccc(Cl)cc1)=NC(CC(=O)Nc1ccc(O)cc1)c1nnc(C)n1-2 (stereo not given) + CC[C@@]1(O)C(=O)OCc2c1cc1n(c2=O)Cc2cc3c(CN(C)C)c(O)ccc3nc2-1 | 1.46 µM | 1.29 µM | 0.431 µM | 0.094 µM | < 0.00949 µM | 71.9% | 68.5% | 65.8% | 60.2% | 54% | 43.9% | 69.9% | 62% | 68.9% | 61% | 50% | 43% | 63.9% | 57.9% | 53.9% | viability, T/C [16]: 54.2%; viability, T/C [17]: 45.4%; viability, T/C [18]: 44.6%; viability, T/C [19]: 71.3%; viability, T/C [20]: 52.9%; viability, T/C [21]: 50.5%; viability, T/C [22]: 54.9%; viability, T/C [23]: 43%; viability, T/C [24]: 41.6%; viability, T/C [25]: 50.3%; viability, T/C [26]: 45.8%; viability, T/C [27]: 43.6%; viability, T/C [28]: 44.4%; viability, T/C [29]: 37%; viability, T/C [30]: 27.1% |
| Cn1ncnc1[C@H]1c2n[nH]c(=O)c3cc(F)cc(c23)N[C@@H]1c1ccc(F)cc1 + CC[C@@]1(O)C(=O)OCc2c1cc1n(c2=O)Cc2cc3c(CN(C)C)c(O)ccc3nc2-1 | > 3 µM | > 3 µM | > 3 µM | > 3 µM | > 3 µM | 102% | 87.8% | 88.7% | 82.4% | 93.7% | 98.7% | 84.4% | 106% | 88.3% | 95.2% | 82.6% | 91.6% | 89.4% | 80.1% | 92.2% | viability, T/C [16]: 79.9%; viability, T/C [17]: 91.1%; viability, T/C [18]: 91.9%; viability, T/C [19]: 70.8%; viability, T/C [20]: 73.5%; viability, T/C [21]: 66.1%; viability, T/C [22]: 72.2%; viability, T/C [23]: 69.2%; viability, T/C [24]: 77.8%; viability, T/C [25]: 60.5%; viability, T/C [26]: 59%; viability, T/C [27]: 58.9%; viability, T/C [28]: 56.5%; viability, T/C [29]: 59.2%; viability, T/C [30]: 66.9% |
